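Test compounds were applied to cells in 96-well plates for 48 hours at 5 doses. GI50: concentration for 50% inhibition of growth. TGI: concentration producing complete growth inhibition.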
Tests used:
Assay in all cases: NCI anticancer screen, dose series, 48 h; in the data active means GI50 below about 0.43 µM; inactive means the rest
786-0 renal = test system: 786-0 renal
A498 renal = test system: A498 renal
A549 NSCLC = test system: A549 NSCLC
ACHN renal = test system: ACHN renal
BT-549 breast = test system: BT-549 breast
CAKI-1 renal = test system: CAKI-1 renal
COLO 205 colon = test system: COLO 205 colon
DU-145 prostate = test system: DU-145 prostate
EKVX NSCLC = test system: EKVX NSCLC
HCC-2998 colon = test system: HCC-2998 colon
HCT-116 colon = test system: HCT-116 colon
HCT-15 colon = test system: HCT-15 colon
HOP-62 NSCLC = test system: HOP-62 NSCLC
HOP-92 NSCLC = test system: HOP-92 NSCLC
HS 578T breast = test system: HS 578T breast
HT29 colon = test system: HT29 colon
IGROV1 ovarian = test system: IGROV1 ovarian
K-562 leukemia = test system: K-562 leukemia
KM12 colon = test system: KM12 colon
LOX IMVI melanoma = test system: LOX IMVI melanoma
M14 melanoma = test system: M14 melanoma
MALME-3M melanoma = test system: MALME-3M melanoma
MCF7 breast = test system: MCF7 breast
MDA-MB-231 breast = test system: MDA-MB-231 breast
MDA-MB-435 = test system: MDA-MB-435
MOLT-4 leukemia = test system: MOLT-4 leukemia
NCI-H226 lung = test system: NCI-H226 lung
NCI-H23 lung = test system: NCI-H23 lung
NCI-H460 lung = test system: NCI-H460 lung
NCI-H522 lung = test system: NCI-H522 lung
NCI/ADR-RES ovarian = test system: NCI/ADR-RES ovarian
OVCAR-3 ovarian = test system: OVCAR-3 ovarian
OVCAR-4 ovarian = test system: OVCAR-4 ovarian
OVCAR-5 ovarian = test system: OVCAR-5 ovarian
OVCAR-8 ovarian = test system: OVCAR-8 ovarian
PC-3 prostate = test system: PC-3 prostate
RPMI-8226 leukemia = test system: RPMI-8226 leukemia
RXF 393 renal = test system: RXF 393 renal
SF-268 CNS = test system: SF-268 CNS
SF-295 CNS = test system: SF-295 CNS
SF-539 CNS = test system: SF-539 CNS
SK-MEL-2 melanoma = test system: SK-MEL-2 melanoma
SK-MEL-28 melanoma = test system: SK-MEL-28 melanoma
SK-MEL-5 melanoma = test system: SK-MEL-5 melanoma
SK-OV-3 ovarian = test system: SK-OV-3 ovarian
SN12C renal = test system: SN12C renal
SNB-19 CNS = test system: SNB-19 CNS
SNB-75 CNS = test system: SNB-75 CNS
SR leukemia = test system: SR leukemia
SW-620 colon = test system: SW-620 colon
T-47D breast = test system: T-47D breast
TK-10 renal = test system: TK-10 renal
U251 CNS = test system: U251 CNS
UACC-257 melanoma = test system: UACC-257 melanoma
UACC-62 melanoma = test system: UACC-62 melanoma
UO-31 renal = test system: UO-31 renal
CCRF-CEM leukemia = test system: CCRF-CEM leukemia
HL-60(TB) leukemia = test system: HL-60(TB) leukemia

O=C(/C=C/c1ccc(-c2ccccc2[N+](=O)[O-])o1)NCc1ccc(C(=O)NCCc2ccccc2)cc1
> 100 µM: TGI (786-0 renal) | TGI (A498 renal) | TGI (A549 NSCLC) | TGI (ACHN renal) | TGI (BT-549 breast) | TGI (CAKI-1 renal) | TGI (COLO 205 colon) | TGI (DU-145 prostate) | TGI (EKVX NSCLC) | TGI (HCC-2998 colon) | TGI (HCT-116 colon) | TGI (HCT-15 colon) | TGI (HOP-62 NSCLC) | TGI (HOP-92 NSCLC) | TGI (HS 578T breast) | TGI (HT29 colon) | TGI (IGROV1 ovarian) | TGI (K-562 leukemia) | TGI (KM12 colon) | TGI (LOX IMVI melanoma) | TGI (M14 melanoma) | TGI (MALME-3M melanoma) | TGI (MCF7 breast) | TGI (MDA-MB-231 breast) | TGI (MDA-MB-435) | TGI (MOLT-4 leukemia) | TGI (NCI-H226 lung) | TGI (NCI-H23 lung) | TGI (NCI-H460 lung) | TGI (NCI-H522 lung) | TGI (NCI/ADR-RES ovarian) | TGI (OVCAR-3 ovarian) | TGI (OVCAR-4 ovarian) | TGI (OVCAR-5 ovarian) | TGI (OVCAR-8 ovarian) | TGI (PC-3 prostate) | TGI (RPMI-8226 leukemia) | TGI (RXF 393 renal) | TGI (SF-268 CNS) | TGI (SF-295 CNS) | TGI (SF-539 CNS) | TGI (SK-MEL-2 melanoma) | TGI (SK-MEL-28 melanoma) | TGI (SK-MEL-5 melanoma) | TGI (SK-OV-3 ovarian) | TGI (SN12C renal) | TGI (SNB-19 CNS) | TGI (SNB-75 CNS) | TGI (SR leukemia) | TGI (SW-620 colon) | TGI (T-47D breast) | TGI (TK-10 renal) | TGI (U251 CNS) | TGI (UACC-257 melanoma) | TGI (UACC-62 melanoma) | TGI (UO-31 renal)

CCCCCCCCCCCCn1c(C)nc2ccccc21
26.5 µM: TGI (ACHN renal) | TGI (SK-OV-3 ovarian)
13 µM: TGI (HCT-116 colon)
26.3 µM: TGI (SNB-19 CNS)
inactive: GI50 (786-0 renal) 11.5 µM | GI50 (A498 renal) 12.4 µM | GI50 (ACHN renal) 13.2 µM | GI50 (BT-549 breast) 12 µM | GI50 (CAKI-1 renal) 14 µM | GI50 (CCRF-CEM leukemia) 2790 nM | GI50 (COLO 205 colon) 13.2 µM | GI50 (DU-145 prostate) 17.2 µM | GI50 (EKVX NSCLC) 1720 nM | GI50 (HCC-2998 colon) 2600 nM | GI50 (HCT-116 colon) 712 nM | GI50 (HCT-15 colon) 12.3 µM | GI50 (HL-60(TB) leukemia) 2540 nM | GI50 (HOP-62 NSCLC) 12.4 µM | GI50 (HOP-92 NSCLC) 11 µM | GI50 (HS 578T breast) 27.7 µM | GI50 (HT29 colon) 11.6 µM | GI50 (IGROV1 ovarian) 14.7 µM | GI50 (K-562 leukemia) 1110 nM | GI50 (KM12 colon) 14.3 µM | GI50 (LOX IMVI melanoma) 3.72 µM | GI50 (M14 melanoma) 13.7 µM | GI50 (MALME-3M melanoma) 16.2 µM | GI50 (MCF7 breast) 5.15 µM | GI50 (MDA-MB-231 breast) 15.3 µM | GI50 (MDA-MB-435) 12.8 µM | GI50 (MOLT-4 leukemia) 10.2 µM | GI50 (NCI-H226 lung) 12.7 µM | GI50 (NCI-H23 lung) 490 nM | GI50 (NCI-H460 lung) 10.5 µM | GI50 (NCI/ADR-RES ovarian) 2550 nM | GI50 (OVCAR-3 ovarian) 14.7 µM | GI50 (OVCAR-4 ovarian) 12.7 µM | GI50 (OVCAR-5 ovarian) 4.78 µM | GI50 (PC-3 prostate) 2470 nM | GI50 (RPMI-8226 leukemia) 614 nM | GI50 (SF-268 CNS) 19.6 µM | GI50 (SF-295 CNS) 8.87 µM | GI50 (SF-539 CNS) 13.7 µM | GI50 (SK-MEL-28 melanoma) 19.4 µM | GI50 (SK-MEL-5 melanoma) 984 nM | GI50 (SK-OV-3 ovarian) 13.6 µM | GI50 (SN12C renal) 14.4 µM | GI50 (SNB-19 CNS) 13.5 µM | GI50 (SNB-75 CNS) 16.2 µM | GI50 (SW-620 colon) 15.4 µM | GI50 (TK-10 renal) 11.2 µM | GI50 (U251 CNS) 11 µM | GI50 (UACC-62 melanoma) 13.1 µM | GI50 (UO-31 renal) 7.58 µM
18 µM: TGI (HCC-2998 colon)
41.1 µM: TGI (SF-268 CNS)
34.5 µM: TGI (SK-MEL-28 melanoma)
30.3 µM: TGI (SNB-75 CNS)
30.7 µM: TGI (SW-620 colon)
28.7 µM: TGI (BT-549 breast)
24.9 µM: TGI (U251 CNS)
24 µM: TGI (786-0 renal)
10.3 µM: TGI (RPMI-8226 leukemia)
27.4 µM: TGI (COLO 205 colon) | TGI (HCT-15 colon)
23.3 µM: TGI (MCF7 breast)
34.8 µM: TGI (MDA-MB-231 breast)
23.5 µM: TGI (MOLT-4 leukemia)
48.3 µM: TGI (HS 578T breast)
35.4 µM: TGI (DU-145 prostate)
18.5 µM: TGI (HL-60(TB) leukemia)
26.9 µM: TGI (UACC-62 melanoma)
16.4 µM: TGI (K-562 leukemia)
20.7 µM: TGI (A549 NSCLC)
19.3 µM: TGI (EKVX NSCLC)
18.2 µM: TGI (SK-MEL-5 melanoma)
26.6 µM: TGI (M14 melanoma) | TGI (SF-295 CNS)
21.2 µM: TGI (CCRF-CEM leukemia)
25.6 µM: TGI (OVCAR-4 ovarian)
20.6 µM: TGI (UO-31 renal)
31.2 µM: TGI (CAKI-1 renal)
active: GI50 (A549 NSCLC) 400 nM | GI50 (T-47D breast) 325 nM
11.5 µM: TGI (NCI-H23 lung)
31.1 µM: TGI (SN12C renal)
31.7 µM: TGI (NCI-H226 lung)
19.1 µM: TGI (T-47D breast)
12.9 µM: TGI (NCI/ADR-RES ovarian)
17.6 µM: TGI (OVCAR-5 ovarian)
27 µM: TGI (SF-539 CNS)
30.2 µM: TGI (OVCAR-3 ovarian)
23.7 µM: TGI (HT29 colon)
33.6 µM: TGI (MALME-3M melanoma)
28.8 µM: TGI (MDA-MB-435)
24.3 µM: TGI (NCI-H460 lung)
28.3 µM: TGI (IGROV1 ovarian)
25.5 µM: TGI (A498 renal) | TGI (HOP-62 NSCLC) | TGI (TK-10 renal)
29 µM: TGI (KM12 colon)
23.9 µM: TGI (HOP-92 NSCLC)
20.5 µM: TGI (LOX IMVI melanoma)
15.8 µM: TGI (PC-3 prostate)

From PubChem BioAssay (NCI)
